Experimental data reported in patent US20210198277A1, “AMINE-SUBSTITUTED ARYL OR HETEROARYL COMPOUNDS” (Epizyme, Inc., priority 2016, published 2021).
Where two headings read alike, the source gives them in different places.

Tests used:
human EHMT2 913-1193 = target: T1, human EHMT2 913-1193 (Homo sapiens, UniProt Q96KQ7); experiment: EHMT2 enzyme assay on histone peptide substrate (EHMT2 PEP); assay type: biochemical; conditions: Table II; read-out: EHMT2 PEP (IC50 μM)
T1 construct: recombinant purified human EHMT2 913-1193, Viva; purchased Viva
T1 sequence (Q96KQ7 913-1193): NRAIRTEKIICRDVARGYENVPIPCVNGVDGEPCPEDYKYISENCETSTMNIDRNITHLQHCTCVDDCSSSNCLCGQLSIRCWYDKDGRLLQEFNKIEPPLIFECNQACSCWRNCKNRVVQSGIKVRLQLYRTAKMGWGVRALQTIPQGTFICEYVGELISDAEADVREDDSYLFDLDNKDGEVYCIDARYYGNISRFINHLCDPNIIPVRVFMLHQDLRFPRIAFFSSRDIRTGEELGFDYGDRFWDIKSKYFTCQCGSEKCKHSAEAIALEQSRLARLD
How it was run: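 Radiometric methyltransferase read-out: ^3H-methyl transfer from ^3H-SAM onto biotinylated histone peptide, captured on streptavidin Flashplates after 60 min reaction at room temperature. Enzyme 0.031 nM, preincubated 30 min with inhibitor; buffer 20 mM Bicine pH 7.5 with 1 mM TCEP; top compound concentration 50 μM final, 2% DMSO.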

EHMT1 = target: T2, EHMT1 (Homo sapiens, UniProt Q9H9B1); experiment: EHMT1 enzyme assay on peptide substrate (EHMT1 PEP); assay type: biochemical; conditions: Table II
T2 sequence (Q9H9B1 1-1298): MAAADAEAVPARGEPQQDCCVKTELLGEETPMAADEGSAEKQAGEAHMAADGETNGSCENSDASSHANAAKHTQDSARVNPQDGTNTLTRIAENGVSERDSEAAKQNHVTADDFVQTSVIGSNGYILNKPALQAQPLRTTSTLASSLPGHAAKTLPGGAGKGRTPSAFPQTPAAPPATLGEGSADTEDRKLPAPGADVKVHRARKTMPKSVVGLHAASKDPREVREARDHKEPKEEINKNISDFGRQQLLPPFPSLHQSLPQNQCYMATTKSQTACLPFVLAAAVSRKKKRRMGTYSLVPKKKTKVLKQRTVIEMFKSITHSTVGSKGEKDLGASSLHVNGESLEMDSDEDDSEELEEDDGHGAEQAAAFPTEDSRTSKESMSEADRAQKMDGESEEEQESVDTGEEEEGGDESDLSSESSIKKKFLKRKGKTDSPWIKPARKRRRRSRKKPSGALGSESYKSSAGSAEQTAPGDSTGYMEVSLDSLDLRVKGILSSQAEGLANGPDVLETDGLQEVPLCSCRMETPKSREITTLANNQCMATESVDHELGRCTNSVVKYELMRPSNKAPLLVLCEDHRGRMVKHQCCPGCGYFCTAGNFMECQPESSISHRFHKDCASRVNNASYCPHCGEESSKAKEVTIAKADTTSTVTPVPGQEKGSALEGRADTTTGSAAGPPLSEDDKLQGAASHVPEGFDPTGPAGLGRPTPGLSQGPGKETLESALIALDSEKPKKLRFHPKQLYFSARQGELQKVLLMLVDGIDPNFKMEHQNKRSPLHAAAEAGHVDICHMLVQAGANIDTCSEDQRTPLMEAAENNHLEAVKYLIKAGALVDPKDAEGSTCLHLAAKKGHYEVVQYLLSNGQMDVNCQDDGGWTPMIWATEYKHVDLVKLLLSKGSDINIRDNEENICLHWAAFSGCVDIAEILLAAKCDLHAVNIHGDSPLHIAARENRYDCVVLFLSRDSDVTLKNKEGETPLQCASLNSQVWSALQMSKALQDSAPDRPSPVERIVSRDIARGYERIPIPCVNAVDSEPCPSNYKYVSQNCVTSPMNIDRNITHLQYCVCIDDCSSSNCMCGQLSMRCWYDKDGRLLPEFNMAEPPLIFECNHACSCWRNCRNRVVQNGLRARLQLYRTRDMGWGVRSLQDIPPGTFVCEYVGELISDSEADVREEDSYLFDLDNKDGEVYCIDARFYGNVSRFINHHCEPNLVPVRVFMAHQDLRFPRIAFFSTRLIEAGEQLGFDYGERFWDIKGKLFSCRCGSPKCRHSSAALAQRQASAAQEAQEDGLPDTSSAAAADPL

| Compound | IC50 (human EHMT2 913-1193) [µM] | IC50 (EHMT1; read-out: EHMT1 PEP (IC50 μM)) [µM] | IC50 (EHMT1; EHMT1 PEP (IC50 μM)) [µM] |
| --- | --- | --- | --- |
| COc1ccc(Nc2nccc(NCC3CCNCC3)n2)cc1OCCCN1CCOCC1 [Compound 16, N^2-(4-methoxy-3-(3-morpholinopropoxy)phenyl)-N^4-(piperidin-4-ylmethyl)pyrimidine-2,4-diamine] | 0.1 to 1 | 0.1 to 1 |  |
| COc1ccc(Nc2nccc(NCC3CCNCC3)n2)cc1CCNCC1CCCC1 [Compound 17, N^2-(3-(2-((cyclopentylmethyl)amino)ethyl)-4-methoxyphenyl)-N^4-(piperidin-4-ylmethyl)pyrimidine-2,4-diamine] | 0.1 to 1 | 0.1 to 1 |  |
| COc1ccc(Nc2nccc(NCC3CCN(C(C)=O)CC3)n2)cc1OCC1CCN(C)C1 (stereo not shown) [Compound 18, 1-(4-(((2-((4-methoxy-3-((1-methylpyrrolidin-3-yl)methoxy)phenyl)amino)pyrimidin-4-yl)amino)methyl)piperidin-1-yl)ethan-1-one] | 0.1 to 1 | 0.1 to 1 |  |
| COc1ccc(Nc2nc(C)cc(NCC3CCN(C(C)=O)CC3)n2)cc1OCCCN1CCCC1 [Compound 19, 1-(4-(((2-((4-methoxy-3-(3-(pyrrolidin-1-yl)propoxy)phenyl)amino)-6-methylpyrimidin-4-yl)amino)methyl)piperidin-1-yl)ethan-1-one] | < 0.1 | < 0.1 |  |
| COc1ccc(Nc2nccc(NC(C)C)n2)cc1OCCCN1CCCC1 [Compound 20] | < 0.1 | 0.1 to 1 |  |
| COc1ccc(Nc2nccc(NCc3ccccc3)n2)cc1OCCCN1CCCC1 [Compound 21] | < 0.1 | 0.1 to 1 |  |
| COCCCNc1ccnc(Nc2ccc(OC)c(OCCCN3CCCC3)c2)n1 [Compound 22] | < 0.1 | < 0.1 |  |
| COc1ccc(Nc2nccc(NCc3ccccn3)n2)cc1OCCCN1CCCC1 [Compound 23] | 0.1 to 1 | 0.1 to 1 |  |
| COc1ccc(Nc2nccc(NCc3ccncc3)n2)cc1OCCCN1CCCC1 [Compound 24] | < 0.1 | < 0.1 |  |
| COc1ccc(Nc2nccc(NCc3cccnc3)n2)cc1OCCCN1CCCC1 [Compound 25] | < 0.1 | < 0.1 |  |
| COc1cccc(CNc2ccnc(Nc3ccc(OC)c(OCCCN4CCCC4)c3)n2)c1 [Compound 26] | < 0.1 | 0.1 to 1 |  |
| COCCNc1ccnc(Nc2ccc(OC)c(OCCCN3CCCC3)c2)n1 [Compound 27] | 0.1 to 1 | 0.1 to 1 |  |
| COc1ccc(CNc2ccnc(Nc3ccc(OC)c(OCCCN4CCCC4)c3)n2)cc1 [Compound 28] | < 0.1 | < 0.1 |  |
| COc1ccc(Nc2nccc(NCC3CCN(C(C)C)CC3)n2)cc1OCCCN1CCCC1 [Compound 29] | < 0.1 | < 0.1 |  |
| COc1ccc(Nc2nccc(NCc3cnn(C)c3)n2)cc1OCCCN1CCCC1 [Compound 30] | < 0.1 | 0.1 to 1 |  |
| COc1ccc(Nc2nccc(NCc3nc4ccccc4[nH]3)n2)cc1OCCCN1CCCC1 [Compound 31] | 0.1 to 1 | 0.1 to 1 |  |
| COc1ccc(Nc2nccc(NCC3CCN(C)CC3)n2)cc1OCCCN1CCCC1 [Compound 32] | < 0.1 | < 0.1 |  |
| COc1ccc(Nc2nccc(NCC3CCN(c4ccccc4)CC3)n2)cc1OCCCN1CCCC1 [Compound 33] | < 0.1 | 0.1 to 1 |  |
| COc1ccc(Nc2nccc(NCC3CCCC3)n2)cc1OCCCN1CCCC1 [Compound 34] | < 0.1 | 0.1 to 1 |  |
| COc1ccc(Nc2cccc(NC3CCC3)n2)cc1OCCCN1CCCC1 [Compound 35] | 0.1 to 1 | 0.1 to 1 |  |
| COc1ccccc1CNc1ccnc(Nc2ccc(OC)c(OCCCN3CCCC3)c2)n1 [Compound 36] | < 0.1 | 0.1 to 1 |  |
| COc1ccc(Nc2nccc(NCCc3cccnc3)n2)cc1OCCCN1CCCC1 [Compound 37] | 0.1 to 1 | 0.1 to 1 |  |

| Compound | IC50 (human EHMT2 913-1193) [µM] | IC50 (EHMT1; read-out: EHMT1 PEP (IC50 μM)) [µM] | IC50 (EHMT1; EHMT1 PEP (IC50 μM)) [µM] |
| --- | --- | --- | --- |
| COc1ccc(Nc2nccc(NCCNC(C)=O)n2)cc1OCCCN1CCCC1 [Compound 38] | < 0.1 | 0.1 to 1 |  |
| COc1ccc(Nc2nccc(NCCc3ccncc3)n2)cc1OCCCN1CCCC1 [Compound 39] | < 0.1 | < 0.1 |  |
| COc1ccc(Nc2nccc(NCCOc3ccccc3)n2)cc1OCCCN1CCCC1 [Compound 40] | 0.1 to 1 | 0.1 to 1 |  |
| CNC(=O)CNc1ccnc(Nc2ccc(OC)c(OCCCN3CCCC3)c2)n1 [Compound 41] | 0.1 to 1 | 0.1 to 1 |  |
| COc1ccc(Nc2nccc(NCC(C)(C)O)n2)cc1OCCCN1CCCC1 [Compound 42] | 0.1 to 1 | 0.1 to 1 |  |
| COc1ccc(Nc2nccc(NCCS(=O)(=O)N(C)C)n2)cc1OCCCN1CCCC1 [Compound 43] | 0.1 to 1 | 0.1 to 1 |  |
| COc1ccc(Nc2nccc(NCCCN(C)C(C)=O)n2)cc1OCCCN1CCCC1 [Compound 44] | 0.1 to 1 | 0.1 to 1 |  |
| COc1ccc(Nc2nccc(NCC3(O)CCCCC3)n2)cc1OCCCN1CCCC1 [Compound 45] | 0.1 to 1 | 0.1 to 1 |  |
| COc1ccc(Nc2nccc(NCc3cc[nH]n3)n2)cc1OCCCN1CCCC1 [Compound 46] | < 0.1 | 0.1 to 1 |  |
| COc1ccc(Nc2nccc(NCC3CCN(C(C)=O)CC3)n2)cc1OCCCN1CCCC1 [Compound 47, 1-(4-(((2-((4-methoxy-3-(3-(pyrrolidin-1-yl)propoxy)phenyl)amino)pyrimidin-4-yl)amino)methyl)piperidin-1-yl)ethan-1-one] | < 0.1 | < 0.1 |  |
| COc1ccc(Nc2nccc(NCC3CCN(C(C)=O)CC3)n2)cc1COCCN1CCCC1 [Compound 48] | 0.1 to 1 | 0.1 to 1 |  |
| COc1ccc(Nc2nccc(NCC3(O)CCOCC3)n2)cc1OCCCN1CCCC1 [Compound 49] | 0.1 to 1 | 0.1 to 1 |  |
| COc1ccc(Nc2nccc(NC3CCCCC3)n2)cc1OCCCN1CCCC1 [Compound 50] | 0.1 to 1 | 0.1 to 1 |  |
| CNc1cc(C)nc(Nc2ccc(OC)c(OCCCN3CCCC3)c2)n1 [Compound 205, N^2-(4-methoxy-3-(3-(pyrrolidin-1-yl)propoxy)phenyl)-N^4,6-dimethylpyrimidine-2,4-diamine] | < 0.1 |  | < 0.1 |
| CNc1cc(Nc2ccc(OC)c(OCCCN3CCCC3)c2)ccn1 [Compound 206] | 0.1 to 1 | 0.1 to 1 |  |
| CNc1ccnc(Nc2cccc(OCCCN3CCCC3)c2)n1 [Compound 207, N^4-methyl-N^2-(3-(3-(pyrrolidin-1-yl)propoxy)phenyl)pyrimidine-2,4-diamine] | 1 to 10 | 1 to 10 |  |
| CNc1nc(C)cc(Nc2ccc(OC)c(OCCCN3CCCC3)c2)n1 [Compound 208] | 0.1 to 1 | 0.1 to 1 |  |
| CNc1ccnc(Nc2ccc(OC)c(OCCCN3CCCC3)c2)c1 [Compound 209, N^2-(4-methoxy-3-(3-(pyrrolidin-1-yl)propoxy)phenyl)-N^4-methylpyridine-2,4-diamine] | 0.1 to 1 | 0.1 to 1 |  |
| CNc1ccnc(Nc2ccc(OC)c(OCCCN3CCOCC3)c2)n1 [Compound 210] | 1 to 10 | 1 to 10 |  |
| COc1ccc(Nc2nccc(-n3nc(C)cc3C)n2)cc1OCCCN1CCCC1 [Compound 214] | > 10 | > 10 |  |
| CNCc1cnc(Nc2ccc(OC)c(OCCCN3CCCC3)c2)nc1 [Compound 215] | > 10 | > 10 |  |
| COc1ccc(Nc2ccnc(NCC3CCN(C(C)=O)CC3)n2)cc1OCCCN1CCCC1 [Compound 216] | 0.1 to 1 | 0.1 to 1 |  |
